IC50 data for 11 compounds are collected here from ChEMBL document CHEMBL1142463 (Bioorg Med Chem Lett, 2008).

The IC50 is the midpoint of a concentration-inhibition curve.

The target of assay [1] is T1, Phospholipase A2 group V (Mus musculus, UniProt P97391).
T1 sequence (P97391 whole entry): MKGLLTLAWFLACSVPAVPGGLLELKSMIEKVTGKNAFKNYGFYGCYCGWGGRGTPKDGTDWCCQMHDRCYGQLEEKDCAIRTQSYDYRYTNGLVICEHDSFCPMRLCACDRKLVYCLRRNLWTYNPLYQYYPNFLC
The assay can be described thus: Inhibition of mouse sPLA2 group 5.

The target of assay [2] is T2, Phospholipase A2, membrane associated (Mus musculus, UniProt P31482).
T2 sequence (P31482 whole entry): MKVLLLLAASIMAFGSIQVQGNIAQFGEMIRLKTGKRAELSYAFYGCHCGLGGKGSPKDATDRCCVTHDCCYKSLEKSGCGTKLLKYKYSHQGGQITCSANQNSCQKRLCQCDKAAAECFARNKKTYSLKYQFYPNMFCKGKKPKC
The assay can be described thus: Inhibition of mouse sPLA2 group 2A.

For assay [3], the target named is T3, Group 10 secretory phospholipase A2 (Mus musculus, UniProt Q9QXX3).
T3 sequence (Q9QXX3 whole entry): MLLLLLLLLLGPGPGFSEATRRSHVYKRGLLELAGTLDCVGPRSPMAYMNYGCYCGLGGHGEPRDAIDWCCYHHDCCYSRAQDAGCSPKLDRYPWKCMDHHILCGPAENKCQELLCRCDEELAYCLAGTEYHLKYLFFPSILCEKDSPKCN
The assay can be described thus: Inhibition of mouse sPLA2 group 10.

Assay [4] concerns the target T4, Phospholipase A2 group V (Homo sapiens, UniProt P39877).
T4 sequence (P39877 whole entry): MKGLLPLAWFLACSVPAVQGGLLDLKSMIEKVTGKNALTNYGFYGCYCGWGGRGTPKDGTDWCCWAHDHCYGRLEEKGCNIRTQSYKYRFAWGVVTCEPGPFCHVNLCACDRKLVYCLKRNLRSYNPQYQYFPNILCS
The assay can be described thus: Inhibition of human sPLA2 group 5.

Assay [5] concerns the target T5, Phospholipase A2, membrane associated (Homo sapiens, UniProt P14555).
T5 sequence (P14555 whole entry): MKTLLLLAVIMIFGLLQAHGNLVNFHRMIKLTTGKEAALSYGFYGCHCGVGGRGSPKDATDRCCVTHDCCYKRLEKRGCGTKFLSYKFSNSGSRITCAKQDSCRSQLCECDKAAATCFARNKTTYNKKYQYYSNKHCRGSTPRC
As to the kind of experiment: Inhibition of human sPLA2 group 2A.

For assay [6], the target named is T6, Group 10 secretory phospholipase A2 (Homo sapiens, UniProt O15496).
T6 sequence (O15496 whole entry): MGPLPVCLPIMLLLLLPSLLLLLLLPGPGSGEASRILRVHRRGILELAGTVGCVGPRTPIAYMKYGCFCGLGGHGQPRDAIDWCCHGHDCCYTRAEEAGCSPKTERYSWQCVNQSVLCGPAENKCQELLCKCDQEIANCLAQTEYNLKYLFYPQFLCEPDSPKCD
As to the kind of experiment: Inhibition of human sPLA2 group 10.

Assay [7] addresses T7, Phospholipase A2, membrane associated (Rattus norvegicus, UniProt P14423).
T7 sequence (P14423 whole entry): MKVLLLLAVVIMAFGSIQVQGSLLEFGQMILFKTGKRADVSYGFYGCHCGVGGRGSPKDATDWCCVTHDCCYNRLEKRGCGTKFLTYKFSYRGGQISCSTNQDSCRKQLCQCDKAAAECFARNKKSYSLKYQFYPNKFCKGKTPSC
The assay can be described thus: Inhibition of rat sPLA2 group 2A.

Assay [8] has as its target Phospholipase A2, membrane associated (Oryctolagus cuniculus, UniProt P14422). The assay can be described thus: Inhibition of rabbit sPLA2 group 2A.

Sequence of Phospholipase A2, membrane associated (Oryctolagus cuniculus, UniProt P14422) (P14422 whole entry): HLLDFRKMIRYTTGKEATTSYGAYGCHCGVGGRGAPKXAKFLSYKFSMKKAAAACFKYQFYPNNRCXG

On to `CCCCCCCCCCCC(=O)c1c(O)c(C(=O)CCCCCCCCCCC)c(O)c(C2CC(c3ccc(O)cc3)Oc3cc(O)ccc32)c1O` (stereo not drawn), for which the IC50 on Phospholipase A2 group V [1] was 0.52 µM; in assay [2], 0.03 µM; in assay [3] it was above 1.6 µM.

Turning to `CCCCCCCCCCCC(=O)c1c(O)c(C)c(O)c(C(C)=O)c1O`, the IC50 (at Phospholipase A2 group V [1]; against Phospholipase A2 group V [4]; in assay [2]; in assay [5]; in assay [6]; in assay [3]) was above 1.6 µM throughout.

For the compound `CCCCCCCCCCCC(=O)c1c(O)cc(O)c(C(=O)CCCCCCCCCCC)c1O` [DIDODECANOYLPHLOROGLUCINOL], the IC50 at Phospholipase A2 group V [1] is 1.6 µM; against Phospholipase A2 group V [4], 1.6 µM; in assay [7] it was 0.09 µM; in assay [2], 0.11 µM; in assay [5], 1.6 µM; in assay [6] it was above 1.6 µM. Moreover, the IC50 is above 1.6 µM in assay [3] and 0.01 µM in assay [8].

As to `CCCCCCCCCCCCc1c(O)cc(O)c(C(=O)CCCCCCCCCCC)c1O`, the IC50 (against Phospholipase A2 group V [1]; on Phospholipase A2 group V [4]; in assay [2]; in assay [5]; in assay [6]; in assay [3]) was above 1.6 µM in each case.

Regarding `CCCCCCCCCCCC(=O)c1cc(C)cc(C(=O)CCCCCCCCCCC)c1O`, the IC50 (on Phospholipase A2 group V [1]; at Phospholipase A2 group V [4]; in assay [2]; in assay [5]; in assay [6]; in assay [3]) was above 1.6 µM in each case.

On to `Oc1ccc(C2CCc3ccc(O)cc3O2)cc1` (stereo not drawn), for which the IC50 in assay [7], in assay [2] and in assay [5] was above 3.3 µM throughout.

With `CC(=O)c1c(O)c(C)c(O)c(C(C)=O)c1O`, the IC50 (on Phospholipase A2 group V [1]; at Phospholipase A2 group V [4]; in assay [2]; in assay [5]; in assay [6]; in assay [3]) was above 1.6 µM each time.

For the compound `CCCCCCCCCCCC(=O)c1cc(C(=O)CCCCCCCCCCC)c(O)cc1O`, the IC50 (against Phospholipase A2 group V [1]; against Phospholipase A2 group V [4]; in assay [2]; in assay [5]; in assay [6]; in assay [3]) was above 1.6 µM throughout.

Regarding `CCCCCCCCCCCCc1c(O)c(C(C)=O)c(O)c(C(C)=O)c1O`, the IC50 (on Phospholipase A2 group V [1]; against Phospholipase A2 group V [4]; in assay [2]; in assay [5]; in assay [6]; in assay [3]) was above 1.6 µM in each case.

Turning to `CCCCCCCCCCCC(=O)c1c(O)c(C)c(O)c(C(=O)CCCCCCCCCCC)c1O`, the IC50 was 1.6 µM at Phospholipase A2 group V [1]; 0.53 µM against Phospholipase A2 group V [4]; 0.08 µM in assay [7]; 0.06 µM in assay [2]; 0.69 µM in assay [5]; above 1.6 µM in assay [6]. For the same compound, the IC50 in assay [3] is above 1.6 µM.

As to `Cc1c(O)c(C(=O)Cc2ccccc2)c(O)c(C(=O)Cc2ccccc2)c1O`, the IC50 (at Phospholipase A2 group V [1]; against Phospholipase A2 group V [4]; in assay [2]; in assay [5]; in assay [6]; in assay [3]) was above 1.6 µM throughout.
